# Test results reported in patent EP0538016A1, “MRSA active 2-phenyl-carbapenems” (MERCK & CO. INC., priority 1991, dated 1993).
# Test system: MRSA
# Test: Activity against a strain of MRSA pathogen, relative to thienamycin
# Type: cell-based, methicillin resistant Staphylococcus aureus
# Conditions: relative to the effectiveness of thienamycin, arbitrarily assigned an effectiveness of 1
# Description: The activity of the following compounds was measured against a strain of MRSA pathogen and reported as relative to the effectiveness of thienamycin, which is arbitrarily assigned an effectiveness of 1. Regarding this measure of activity, reference is made to R. Guthikonda, et al., J. Med. Chem., 30, 871 (1987). [drawing 76]
row,Compound,ANTI-INFECTIVE ACTIVITY MRSA
1,"C[C@@H](O)[C@H]1C(=O)N2C(C(=O)O)=C(c3cc([S+](C)[O-])cc([S+](C)[O-])c3)C[C@H]12 (stereo partly drawn) [R^a1=(S→O)Me, R^a2=H, R^a3=(S→O)Me]",1.2
2,"CSc1cc(SC)cc(C2=C(C(=O)O)N3C(=O)C(C(C)O)C3C2)c1 (stereo not drawn) [R^a1=SMe, R^a2=H, R^a3=SMe]",28
3,"C[C@@H](O)[C@H]1C(=O)N2C(C(=O)O)=C(c3cc([S+](C)[O-])cc(S(C)(=O)=O)c3)C[C@H]12 (stereo partly drawn) [R^a1=(S→O)Me, R^a2=H, R^a3=[drawing]]",3.7
4,"CC(O)C1C(=O)N2C(C(=O)O)=C(c3cc(Br)cc(C=O)c3)CC12 [R^a1=Br, R^a2=H, R^a3=HC=O, sodium (5R,6S)-2-[(3-aldehydo)-(5-bromo)phenyl]-6-[(1R)-1-hydroxyethyl]carbapen-2-em-3-carboxylate]",219
5,"CSc1cc(CO)cc(C2=C(C(=O)O)N3C(=O)[C@H]([C@@H](C)O)[C@H]3C2)c1 [R^a1=SMe, R^a2=H, R^a3=CH2OH]",3.2
6,"CC(O)C1C(=O)N2C(C(=O)O)=C(c3cccc(C=O)c3)CC12 (stereo not drawn) [R^a1=H, R^a2=H, R^a3=HC=O, reference compound]",3.3
7,"CC(O)C1C(=O)N2C(C(=O)O)=C(c3cccc(I)c3)CC12 (stereo not drawn) [R^a1=I, R^a2=H, R^a3=H, reference compound]",21
8,"CC(O)C1C(=O)N2C(C(=O)O)=C(c3cccc(CO)c3)CC12 (stereo not drawn) [R^a1=H, R^a2=H, R^a3=CH2OH, reference compound]",0.9
9,"CC(O)C1C(=O)N2C(C(=O)O)=C(c3cc(Br)cc(CO)c3)CC12 (stereo not drawn) [R^a1=Br, R^a2=H, R^a3=CH2OH, reference compound]",8.7
10,"CC(O)C1C(=O)N2C(C(=O)O)=C(c3cc(I)cc([S+](C)[O-])c3)CC12 [R^a1=I, R^a2=H, R^a3=(S→O)Me, sodium (5R, 6S)-2-[(3-methylsulfinyl)-5-iodophenyl]-6-[(1R)-1-hydroxyethyl]carbapen-2-em-3-carboxylate]",63
11,"CC(O)C1C(=O)N2C(C(=O)O)=C(c3ccc(C=O)cc3)CC12 (stereo not drawn) [R^a1=H, R^a2=HC=O, R^a3=H, reference compound]",2
12,"CSc1cc(I)cc(C2=C(C(=O)O)N3C(=O)C(C(C)O)C3C2)c1 [R^a1=I, R^a2=H, R^a3=SMe, sodium (5R, 6S)-2-[(3-methylthio)-5-iodophenyl]-6-[(1R)-1-hydroxyethyl]carbapen-2-em-3-carboxylate]",60
13,"CC(O)C1C(=O)N2C(C(=O)O)=C(c3ccc(I)cc3)CC12 (stereo not drawn) [R^a1=H, R^a2=I, R^a3=H, reference compound]",1.8
14,"CC(O)C1C(=O)N2C(C(=O)O)=C(c3cc(I)cc(I)c3)CC12 [R^a1=I, R^a2=H, R^a3=I, sodium (5R,6S)-2-[(3,5-diiodo)phenyl]-6-[1R-1-hydroxyethyl]-carbapen-2-em-3-carboxylate]",88
15,"CC(O)C1C(=O)N2C(C(=O)O)=C(c3cc(I)cc(S(C)(=O)=O)c3)CC12 (stereo not drawn) [R^a1=I, R^a2=H, R^a3=[drawing]]",63
16,"CSc1cc(C=O)cc(C2=C(C(=O)O)N3C(=O)[C@H]([C@@H](C)O)[C@H]3C2)c1 [R^a1=SMe, R^a2=H, R^a3=HC=O]",61
17,"C[C@@H](O)[C@H]1C(=O)N2C(C(=O)O)=C(c3cc(S(C)(=O)=O)cc(S(C)(=O)=O)c3)C[C@H]12 [R^a1=[drawing], R^a2=H, R^a3=[drawing]]",12
18,"CSc1cc(C2=C(C(=O)O)N3C(=O)[C@H]([C@@H](C)O)[C@H]3C2)cc([S+](C)[O-])c1 (stereo partly drawn) [R^a1=SMe, R^a2=H, R^a3=(S→O)Me, sodium (5R,6S)-2-[(3-methylsulfinyl)-(5-methylthio)phenyl]-6-[(1R)-hydroxyethyl]carbapen-2-em-3-carboxylate]",6.1
